Test results reported in US20100298141A1, “SUBSTITUTED PYRIDINE N-OXIDE HERBICIDES” (E. I. DU PONT DE NEMOURS AND COMPANY, priority 2007, published 2010).

Columns and labels:
Goosegrass = experiment: Test C pre-/postemergence test; type: in vivo, Eleusin indica; conditions: for Plant response rating, Goosegrass: 31 g ai/ha, scale 0 to 100 (0 no effect, 100 complete control)
In short: (§1)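 Seeds were planted and treated preemergence with test chemical in a non-phytotoxic solvent mixture containing surfactant. Postemergence applications of the same formulation went onto plants 2 to 18 cm tall (1- to 4-leaf stage). A dash marks no test result.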

mustard = experiment: Test F preemergence test; type: in vivo, Brassica nigra; conditions: scale 0 to 100
In short: (§2)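 Greenhouse screen: test chemical in surfactant-containing non-phytotoxic solvent applied preemergence to sown seeds or postemergence to sugarcane plants; after 14 to 21 days each species scored visually versus controls.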

wheat = experiment: Test A pre-/postemergence greenhouse test; type: in vivo, Triticum aestivum; conditions: for Plant response rating, Wheat: 0 to 100 scale where 0 is no effect and 100 is complete control; for Wheat plant response rating: 0 to 100 scale
In short: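 Planting was into mixed loam soil and sand; preemergence treatment followed as a directed soil spray. Concurrently, emerged plants (one- to two-leaf, 2–10 cm) received postemergence applications of identically formulated compound (non-phytotoxic solvent, surfactant). After approximately ten days under greenhouse conditions, injury was judged by eye against untreated plants.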

umbrella sedge = experiment: Test C flooded paddy test; type: in vivo, Cyperus difformis; conditions: Flood
In short: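 Under a constant 3 cm flood, test compounds went directly into the paddy water. Following 13 to 15 days of greenhouse growth, treated species and controls were compared by eye.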

kochia = experiment: Test F preemergence test; type: in vivo, Kochia scoparia; conditions: scale 0 to 100
In short: as §2

common groundsel = experiment: Test F preemergence test; type: in vivo, Senecio vulgaris; conditions: scale 0 to 100
In short: as §2

crabgrass = experiment: Test C pre-/postemergence test; type: in vivo, Digitaria sanguinalis; conditions: for Plant response rating, Crabgrass, Large: 31 g ai/ha, scale 0 to 100 (0 no effect, 100 complete control)
In short: as §1

annual bluegrass = experiment: Test F preemergence test; type: in vivo, Poa annua; conditions: scale 0 to 100
In short: as §2

common mallow = experiment: Test F preemergence test; type: in vivo, Malva sylvestris; conditions: scale 0 to 100
In short: as §2

green foxtail = experiment: Test F preemergence test; type: in vivo, Setaria viridis; conditions: scale 0 to 100
In short: as §2

dallisgrass = experiment: Test F preemergence test; type: in vivo, Paspalum dilatatum; conditions: scale 0 to 100
In short: as §2

quackgrass = experiment: Test F preemergence test; type: in vivo, Elytrigia repens; conditions: scale 0 to 100
In short: as §2

[1] = 62 g ai/ha, Preemergence, scale 0 to 100
[2] = 125 g ai/ha, preemergence, scale 0 (no effect) to 100 (complete control)
[3] = preemergence, 250 g ai/ha, scale 0 (no effect) to 100 (complete control)
[4] = Postemergence, 500 g ai/ha, 0 is no effect, 100 is complete control
[5] = Preemergence, 125 g ai/ha, 0 no effect, 100 complete control
[6] = 62 g ai/ha, scale 0 to 100 (0 no effect, 100 complete control)
[7] = 250 g ai/ha, scale 0 to 100, 0 no effect, 100 complete control, 13 to 15 days

CC(Oc1c(C[S+]([O-])c2cccc[n+]2[O-])c(C(F)(F)F)nn1C)C(F)(F)F (centres unmarked) [Compound 77]
Goosegrass plant response rating (Goosegrass; [1]): 100
Goosegrass plant response rating (Goosegrass; [2]): 100
Plant response rating, Goosegrass (Goosegrass; Preemergence): 95
Goosegrass plant response rating (Goosegrass; [3]): 100
Plant response rating, Black Mustard (mustard; 16 g ai/ha, preemergence): 0
Black Mustard plant response rating (mustard; 62 g ai/ha, Preemergence): 65
Black Mustard plant response rating (mustard; 125 g ai/ha, preemergence): 100
Plant response rating, Black Mustard (mustard; Preemergence, 31 g ai/ha): 20
Plant response rating, Wheat (wheat; Postemergence, 125 g ai/ha): 50
Wheat plant response rating (wheat; [4]): 70
Wheat plant response rating (wheat; [5]): 50
Plant response rating, Wheat (wheat; Preemergence, 500 g ai/ha): 100
Plant response rating, Sedge, Umbrella (umbrella sedge; [6]): 100
Plant response rating, Sedge, Umbrella (umbrella sedge; [7]): 100
Plant response rating, Kochia (kochia; 16 g ai/ha, preemergence): 0
Kochia plant response rating (kochia; 62 g ai/ha, Preemergence): 75
Kochia plant response rating (kochia; 125 g ai/ha, preemergence): 100
Plant response rating, Kochia (kochia; Preemergence, 31 g ai/ha): 0
Plant response rating, Groundsel (common groundsel; 16 g ai/ha, preemergence): 0
Groundsel plant response rating (common groundsel; 62 g ai/ha, Preemergence): 0
Groundsel plant response rating (common groundsel; 125 g ai/ha, preemergence): 0
Plant response rating, Groundsel (common groundsel; Preemergence, 31 g ai/ha): 0
Crabgrass, Large plant response rating (crabgrass; [1]): 100
Crabgrass, Large plant response rating (crabgrass; [2]): 100
Plant response rating, Crabgrass, Large (crabgrass; Preemergence): 80
Crabgrass, Large plant response rating (crabgrass; [3]): 100
Plant response rating, Bluegrass (annual bluegrass; 16 g ai/ha, preemergence): 0
Bluegrass plant response rating (annual bluegrass; 62 g ai/ha, Preemergence): 0
Bluegrass plant response rating (annual bluegrass; 125 g ai/ha, preemergence): 75
Plant response rating, Bluegrass (annual bluegrass; Preemergence, 31 g ai/ha): 0
Plant response rating, Mallow (common mallow; 16 g ai/ha, preemergence): 65
Mallow plant response rating (common mallow; 62 g ai/ha, Preemergence): 90
Mallow plant response rating (common mallow; 125 g ai/ha, preemergence): 100
Plant response rating, Mallow (common mallow; Preemergence, 31 g ai/ha): 90
Plant response rating, Foxtail, Green (green foxtail; 16 g ai/ha, preemergence): 25
Foxtail, Green plant response rating (green foxtail; 62 g ai/ha, Preemergence): 90
Foxtail, Green plant response rating (green foxtail; 125 g ai/ha, preemergence): 100
Plant response rating, Foxtail, Green (green foxtail; Preemergence, 31 g ai/ha): 65
Plant response rating, Dallisgrass (dallisgrass; 16 g ai/ha, preemergence): 0
Dallisgrass plant response rating (dallisgrass; 62 g ai/ha, Preemergence): 98
Dallisgrass plant response rating (dallisgrass; 125 g ai/ha, preemergence): 100
Plant response rating, Dallisgrass (dallisgrass; Preemergence, 31 g ai/ha): 30
Plant response rating, Quackgrass (quackgrass; 16 g ai/ha, preemergence): 0
Quackgrass plant response rating (quackgrass; 62 g ai/ha, Preemergence): 40
Quackgrass plant response rating (quackgrass; 125 g ai/ha, preemergence): 80
Plant response rating, Quackgrass (quackgrass; Preemergence, 31 g ai/ha): 0

Cn1nc(OC(F)F)c(CS(=O)(=O)c2cccc[n+]2[O-])c1C(F)(F)F [Compound 80]
Goosegrass plant response rating (Goosegrass; [1]): 98
Goosegrass plant response rating (Goosegrass; [2]): 100
Plant response rating, Goosegrass (Goosegrass; Preemergence): 80
Goosegrass plant response rating (Goosegrass; [3]): 100
Plant response rating, Black Mustard (mustard; 16 g ai/ha, preemergence): 0
Black Mustard plant response rating (mustard; 62 g ai/ha, Preemergence): 0
Black Mustard plant response rating (mustard; 125 g ai/ha, preemergence): 50
Plant response rating, Black Mustard (mustard; Preemergence, 31 g ai/ha): 0
Plant response rating, Wheat (wheat; Postemergence, 125 g ai/ha): 30
Wheat plant response rating (wheat; [4]): 60
Wheat plant response rating (wheat; [5]): 10
Plant response rating, Wheat (wheat; Preemergence, 500 g ai/ha): 80
Plant response rating, Sedge, Umbrella (umbrella sedge; [6]): 0
Plant response rating, Sedge, Umbrella (umbrella sedge; [7]): 85
Plant response rating, Kochia (kochia; 16 g ai/ha, preemergence): 0
Kochia plant response rating (kochia; 62 g ai/ha, Preemergence): 35
Kochia plant response rating (kochia; 125 g ai/ha, preemergence): 90
Plant response rating, Kochia (kochia; Preemergence, 31 g ai/ha): 0
Groundsel plant response rating (common groundsel; 62 g ai/ha, Preemergence): 0
Groundsel plant response rating (common groundsel; 125 g ai/ha, preemergence): 50
Plant response rating, Groundsel (common groundsel; Preemergence, 31 g ai/ha): 0
Crabgrass, Large plant response rating (crabgrass; [1]): 85
Crabgrass, Large plant response rating (crabgrass; [2]): 85
Plant response rating, Crabgrass, Large (crabgrass; Preemergence): 85
Crabgrass, Large plant response rating (crabgrass; [3]): 98
Plant response rating, Bluegrass (annual bluegrass; 16 g ai/ha, preemergence): 25
Bluegrass plant response rating (annual bluegrass; 62 g ai/ha, Preemergence): 90
Bluegrass plant response rating (annual bluegrass; 125 g ai/ha, preemergence): 95
Plant response rating, Bluegrass (annual bluegrass; Preemergence, 31 g ai/ha): 25
Plant response rating, Mallow (common mallow; 16 g ai/ha, preemergence): 0
Mallow plant response rating (common mallow; 62 g ai/ha, Preemergence): 0
Mallow plant response rating (common mallow; 125 g ai/ha, preemergence): 65
Plant response rating, Mallow (common mallow; Preemergence, 31 g ai/ha): 0
Plant response rating, Foxtail, Green (green foxtail; 16 g ai/ha, preemergence): 30
Foxtail, Green plant response rating (green foxtail; 62 g ai/ha, Preemergence): 75
Foxtail, Green plant response rating (green foxtail; 125 g ai/ha, preemergence): 95
Plant response rating, Foxtail, Green (green foxtail; Preemergence, 31 g ai/ha): 75
Plant response rating, Dallisgrass (dallisgrass; 16 g ai/ha, preemergence): 40
Dallisgrass plant response rating (dallisgrass; 62 g ai/ha, Preemergence): 95
Dallisgrass plant response rating (dallisgrass; 125 g ai/ha, preemergence): 100
Plant response rating, Dallisgrass (dallisgrass; Preemergence, 31 g ai/ha): 80
Plant response rating, Quackgrass (quackgrass; 16 g ai/ha, preemergence): 10
Quackgrass plant response rating (quackgrass; 62 g ai/ha, Preemergence): 65
Quackgrass plant response rating (quackgrass; 125 g ai/ha, preemergence): 75
Plant response rating, Quackgrass (quackgrass; Preemergence, 31 g ai/ha): 65

Cn1nc(C(F)(F)F)c(C[S+]([O-])c2ccc(Cl)c[n+]2[O-])c1OCC(F)F (centres unmarked) [Compound 85]
Goosegrass plant response rating (Goosegrass; [1]): 100
Goosegrass plant response rating (Goosegrass; [2]): 100
Plant response rating, Goosegrass (Goosegrass; Preemergence): 100
Goosegrass plant response rating (Goosegrass; [3]): 100
Plant response rating, Black Mustard (mustard; 16 g ai/ha, preemergence): 40
Black Mustard plant response rating (mustard; 125 g ai/ha, preemergence): 60
Plant response rating, Black Mustard (mustard; Preemergence, 62 g ai/ha): 40
Plant response rating, Black Mustard (mustard; Preemergence, 31 g ai/ha): 40
Plant response rating, Wheat (wheat; Postemergence, 125 g ai/ha): 60
Wheat plant response rating (wheat; [4]): 70
Wheat plant response rating (wheat; [5]): 70
Wheat plant response rating (wheat; Preemergence, 500 g ai/ha, 0 no effect, 100 complete control): 90
Plant response rating, Sedge, Umbrella (umbrella sedge; 31 g ai/ha, scale 0 to 100 (0 no effect, 100 complete control)): 0
Plant response rating, Sedge, Umbrella (umbrella sedge; [6]): 45
Plant response rating, Sedge, Umbrella (umbrella sedge; 125 g ai/ha, scale 0 to 100, 0 no effect, 100 complete control, 13 to 15 days): 60
Plant response rating, Sedge, Umbrella (umbrella sedge; [7]): 95
Kochia plant response rating (kochia; 125 g ai/ha, preemergence): 100
Plant response rating, Kochia (kochia; Preemergence, 62 g ai/ha): 100
Plant response rating, Kochia (kochia; Preemergence, 31 g ai/ha): 25
Plant response rating, Groundsel (common groundsel; 16 g ai/ha, preemergence): 0
Groundsel plant response rating (common groundsel; 125 g ai/ha, preemergence): 65
Plant response rating, Groundsel (common groundsel; Preemergence, 62 g ai/ha): 0
Plant response rating, Groundsel (common groundsel; Preemergence, 31 g ai/ha): 0
Crabgrass, Large plant response rating (crabgrass; [1]): 85
Plant response rating, Crabgrass, Large (crabgrass; Preemergence): 80
Crabgrass, Large plant response rating (crabgrass; [3]): 100
Plant response rating, Bluegrass (annual bluegrass; 16 g ai/ha, preemergence): 75
Bluegrass plant response rating (annual bluegrass; 125 g ai/ha, preemergence): 100
Plant response rating, Bluegrass (annual bluegrass; Preemergence, 62 g ai/ha): 95
Plant response rating, Bluegrass (annual bluegrass; Preemergence, 31 g ai/ha): 95
Plant response rating, Mallow (common mallow; 16 g ai/ha, preemergence): 0
Mallow plant response rating (common mallow; 125 g ai/ha, preemergence): 98
Plant response rating, Mallow (common mallow; Preemergence, 62 g ai/ha): 98
Plant response rating, Mallow (common mallow; Preemergence, 31 g ai/ha): 50
Plant response rating, Foxtail, Green (green foxtail; 16 g ai/ha, preemergence): 35
Foxtail, Green plant response rating (green foxtail; 125 g ai/ha, preemergence): 95
Plant response rating, Foxtail, Green (green foxtail; Preemergence, 62 g ai/ha): 90
Plant response rating, Foxtail, Green (green foxtail; Preemergence, 31 g ai/ha): 70
Plant response rating, Dallisgrass (dallisgrass; 16 g ai/ha, preemergence): 15
Dallisgrass plant response rating (dallisgrass; 125 g ai/ha, preemergence): 98
Plant response rating, Dallisgrass (dallisgrass; Preemergence, 62 g ai/ha): 85
Plant response rating, Dallisgrass (dallisgrass; Preemergence, 31 g ai/ha): 75
Plant response rating, Quackgrass (quackgrass; 16 g ai/ha, preemergence): 20
Quackgrass plant response rating (quackgrass; 125 g ai/ha, preemergence): 95
Plant response rating, Quackgrass (quackgrass; Preemergence, 62 g ai/ha): 80
Plant response rating, Quackgrass (quackgrass; Preemergence, 31 g ai/ha): 65
